Laboratory results published in US6440967B1, “Combination of a GABAA alpha 5 inverse agonist and COX-2 inhibitor, NSAID, estrogen or vitamin E” (Merck & Co., Inc., priority 1998, dated 2002).

## Cc1cc(-c2nnc3c4ccccc4c(OCc4cccc(Br)n4)nn23)no1 [Reference Example 2, 6-(6-Bromopyridin-2-yl)methyloxy-3-(5-methylisoxazol-3-yl)-1,2,4-triazolo[3,4-a]phthalazine]
  melting point: 247.5 to 249 °C
